The source of these data is EP2769738B1, “Conjugated TLR7 and/or TLR8 and TLR2 polycationic agonists” (Invivogen, priority 2013, dated 2014).

The test concerns the target T1, murine TLR7 (Mus musculus, UniProt P58681).
T1 construct: host or cells: HEK293 (ATCC, CRL-1573), HEK-Blue mTLR7
T1 sequence (P58681 27-1050): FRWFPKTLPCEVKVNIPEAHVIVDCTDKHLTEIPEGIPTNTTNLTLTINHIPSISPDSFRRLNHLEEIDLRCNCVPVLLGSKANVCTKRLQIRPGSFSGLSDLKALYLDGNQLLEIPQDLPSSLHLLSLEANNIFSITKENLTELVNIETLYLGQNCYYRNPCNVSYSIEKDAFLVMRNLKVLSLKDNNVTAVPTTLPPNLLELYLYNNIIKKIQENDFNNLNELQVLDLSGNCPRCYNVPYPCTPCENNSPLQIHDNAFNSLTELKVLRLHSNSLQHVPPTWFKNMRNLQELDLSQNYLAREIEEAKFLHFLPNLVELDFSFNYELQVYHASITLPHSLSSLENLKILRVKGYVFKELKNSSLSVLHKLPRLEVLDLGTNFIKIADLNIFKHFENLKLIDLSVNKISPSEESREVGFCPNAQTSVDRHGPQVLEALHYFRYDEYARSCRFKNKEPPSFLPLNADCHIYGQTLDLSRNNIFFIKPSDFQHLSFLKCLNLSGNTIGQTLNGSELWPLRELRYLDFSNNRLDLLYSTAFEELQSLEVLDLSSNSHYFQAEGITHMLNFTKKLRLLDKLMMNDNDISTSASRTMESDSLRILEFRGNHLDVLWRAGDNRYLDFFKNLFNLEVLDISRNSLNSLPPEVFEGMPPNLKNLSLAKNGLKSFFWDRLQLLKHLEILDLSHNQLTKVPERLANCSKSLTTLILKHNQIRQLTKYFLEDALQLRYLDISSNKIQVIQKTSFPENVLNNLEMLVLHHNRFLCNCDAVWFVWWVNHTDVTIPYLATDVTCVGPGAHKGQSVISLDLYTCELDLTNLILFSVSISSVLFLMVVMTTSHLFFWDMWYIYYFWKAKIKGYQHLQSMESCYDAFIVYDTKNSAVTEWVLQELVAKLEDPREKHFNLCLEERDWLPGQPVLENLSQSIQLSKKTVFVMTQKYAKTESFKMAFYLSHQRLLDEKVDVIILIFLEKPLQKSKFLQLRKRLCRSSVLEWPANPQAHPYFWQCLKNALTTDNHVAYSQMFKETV
Briefly: HEK-Blue mTLR7 NF-κB/AP-1-inducible SEAP reporter cell assay. In kind it is cell-based. As to conditions: Figure 2; 10 µg/mL to 10 pg/ml, 24 hours, SEAP read as OD at 655 nm. An excerpt: Assays for detecting TLR7, TLR8 or TLR2 activity are known in the art and include for example cell-based assays using respectively TLR7, TLR8 or TLR2 reporter cell lines (InvivoGen). The reporter cell lines are engineered HEK293 cells, a human embryonic kidney cell line (ATCC, CRL-1573) that stably express either murine TLR7 (HEK-Blue™ mTLR7) or human TLR7 (HEK-Blue™ hTLR7), human TLR8 (HEK-Blue™ hTLR8) or human TLR2 (HEK- Blue™ hTLR2) with an NF-κB-inducible secreted embryonic alkaline phosphatase (SEAP) as the reporter gene.
Cell-based assays were carried out using TLR7 and TLR2 reporter cell lines (InvivoGen). The reporter cell lines are engineered HEK293 cells, a human embryonic kidney cell line (ATCC, CRL-1573) that stably express either murine TLR7 (HEK-Blue™ mTLR7) or human TLR7 (HEK-Blue™ hTLR7) or human TLR2 (HEK- Blue™ hTLR2) with an NF-κB-inducible secreted embryonic alkaline phosphatase (SEAP) as the reporter gene. The SEAP reporter gene is under the control of the NF-κB and AP-1-inducible promoter, which, upon treatment with a corresponding TLR ligand and activation of NF-κB and AP-1, induces the production of SEAP. Detection of SEAP is measured following culturing cells in HEK-Blue™ Detection media (InvivoGen). HEK-Blue™ Detection contains a SEAP substrate that when hydrolysed by SEAP produces a colorimetric change allowing for detection of SEAP as the protein is secreted. […] These assays were carried out using RAW-Blue™ Cells (InvivoGen), derived from RAW 264.7 mouse leukemic monocyte macrophage cell line (ATCC, CRL 2278) stably overexpressing a NF-κB /AP-1 inducible SEAP reporter constructs.
To perform the assay, cells were seeded on 96 well microliter plates at 50,000 or 100,000 cells per well for HEK-Blue™ Cells and RAW-Blue™ Cells respectively, and cultured at 37 °C in the presence of the conjugated compounds The TLR7-TLR2 polyamine molecules were prepared as follows: First, stock solutions of the conjugated compounds of the invention were prepared in ethanol or water to a concentration of 10 mg/ml.
The working dilutions of the conjugated TLR7-TLR2 polyamine agonists made up in water or PBS were directly added to the reporter cell lines at a final concentration ranging from 10 µg/mL to 10 pg/ml and incubated at 37 °C for 24 hours. After 24 hours of incubation, the effect on reporter gene activity was determined by reading the OD at 655 nm using iMark™ Microplate Reader (BIO-RAD).

Regarding `CCCCCCCCCCCCCCCC(=O)OCC(CSC[C@H](N)C(=O)N[C@@H](CCCCNC(=O)CNC(=O)c1ccc(Cn2c(O)nc3c(N)nc(NCCCC)nc32)cc1)C(=O)NCCCNCCCCNCCCN)OC(=O)CCCCCCCCCCCCCCC` (stereo partly drawn) [CL475, (6R,9S)-6,23-diamino-9-(4-(2-(4-((6-amino-2-(butylamino)-8-hydroxy-9H-purin-9-yl)methyl)benzamido)acetamido)butyl)-7,10-dioxo-4-thia-8,11,15,20-tetraazatrico sane-1,2-diyl dipalmitate], the “ability to activate mTLR7” value was “activate mTLR7”.

For `CCCCCCCCCCCCCCCC(=O)OCC(CSC[C@H](N)C(=O)NCCCC[C@H](NC(=O)c1ccc(Cn2c(O)nc3c(N)nc(NCCCC)nc32)cc1)C(=O)NCCCNCCCCNCCCN)OC(=O)CCCCCCCCCCCCCCC` (stereo partly drawn) [CL486, (6R,13S)-6,27-diamino-13-(4-((6-amino-2-(butylamino)-8-hydroxy-9H-purin-9-yl)methyl)benzamido)-7,14-dioxo-4-thia-8,15,19,24-tetraazaheptacosane-1,2-diyl dipalmitate], the “ability to activate mTLR7” value is “activate mTLR7”.

Regarding `CCCCCCCCCCCCCCCC(=O)OCC(CSC[C@H](N)C(=O)NCCCC[C@H](NC(=O)CNC(=O)c1ccc(Cn2c(O)nc3c(N)nc(NCCCC)nc32)cc1)C(=O)NCCCNCCCCNCCCN)OC(=O)CCCCCCCCCCCCCCC` (stereo partly drawn) [CL487, (6R,13S)-6,27-diamino-13-(2-(4-((6-amino-2-(butylamino)-8-hydroxy-9H-purin-9-yl)methyl)benzamido)acetamido)-7,14-dioxo-4-thia-8,15,19,24-tetraazaheptacosane-1,2-diyl dipalmitate], the “ability to activate mTLR7” value was “activate mTLR7”.

For `CCCCCCCCCCCCCCCC(=O)OCC(CSC[C@H](N)C(=O)N[C@@H](COC(=O)c1ccc(Cn2c(O)nc3c(N)nc(NCCCC)nc32)cc1)C(=O)NCCCNCCCCNCCCN)OC(=O)CCCCCCCCCCCCCCC` (stereo partly drawn) [CL514, (6R,9S)-6,23-diamino-9-((4-((6-amino-2-(butylamino)-8-hydroxy-9H-purin-9-yl)methyl)benzoyloxy)methyl)-7,10-dioxo-4-thia-8,11,15,20-tetraazatricosane-1,2-diyl dipalmitate], the “ability to activate mTLR7” value is reported as “activate mTLR7”.

With `CCCCCCCCCCCCCCCC(=O)OCC(CSC[C@H](N)C(=O)N[C@@H](CCC(=O)NCCCNCCCCNCCCN)C(=O)Nc1ccc(Cn2c(O)nc3c(N)nc(NCCCC)nc32)cc1)OC(=O)CCCCCCCCCCCCCCC` (stereo partly drawn) [CL527, (6R,9S)-6,25-diamino-9-(4-((6-amino-2-(butylamino)-8-hydroxy-9H-purin-9-yl)methyl)phenylcarbamoyl)-7,12-dioxo-4-thia-8,13,17,22-tetraazapentacosane-1,2-diyl dipalmitate], the “ability to activate mTLR7” value was “activate mTLR7”.

Turning to `CCCCCCCCCCCCCCCC(=O)OCC(CSC[C@H](N)C(=O)NCCCNCCCCNCCCNC(=O)CNC(=O)c1ccc(Cn2c(O)nc3c(N)nc(NCCCC)nc32)cc1)OC(=O)CCCCCCCCCCCCCCC` (stereo partly drawn) [CL553, (20R)-20-amino-1-(4-((6-amino-2-(butylamino)-8-hydroxy-9H-purin-9-yl)methyl)phenyl)-1,4,19-trioxo-22-thia-2,5,9,14,18-pentaazapentacosane-24,25-diyl dipalmitate], the “ability to activate mTLR7” value was “activate mTLR7”.
